# Laboratory results from patent publication US20030166201A1, “Selection systems for genetically modified cells” (priority 2001, published 2003).
# Where two headings read alike, the source gives them in different places.
# How the values were obtained:
# [1] = molecular target: T1, DHODH (Homo sapiens, UniProt Q02127); conditions: cited from earlier work; for Km: substrate/cosubstrate
# Target sequence in this assay (Q02127 whole entry): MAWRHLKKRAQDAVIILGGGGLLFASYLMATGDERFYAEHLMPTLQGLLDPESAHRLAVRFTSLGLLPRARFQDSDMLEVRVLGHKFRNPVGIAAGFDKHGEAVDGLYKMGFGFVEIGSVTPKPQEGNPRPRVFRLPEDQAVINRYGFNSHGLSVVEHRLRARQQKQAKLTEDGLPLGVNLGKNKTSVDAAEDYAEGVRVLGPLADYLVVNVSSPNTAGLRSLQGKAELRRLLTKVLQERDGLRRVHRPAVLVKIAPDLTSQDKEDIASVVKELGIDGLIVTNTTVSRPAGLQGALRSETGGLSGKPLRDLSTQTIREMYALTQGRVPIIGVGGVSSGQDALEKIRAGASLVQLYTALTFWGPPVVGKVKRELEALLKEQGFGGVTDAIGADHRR
# [2] = tested on: Jurkat T cells; experiment: Viability (Trypan Blue) of untransfected or mock-transfected Jurkat T cells; format: cell-based, human
# Method: (§1) Jurkat T cells (Human CD4+ T cell line from American Type Culture Collection, ATCC Number: TIB-152) were passaged in T cell culture media containing 0, 100, 125, 150, 175, and 200 μg/ml hygromycin. Unless otherwise stated, T cell culture media was prepared by addition of 13.7 ml HEPES (Irvine Scientific catalog No. 9319), 5 ml L-Glutamine (BioWhittaker Catalog No. 17-605C) and 57 ml heat inactivated fetal calf serum (Hyclone catalog No. SH30070.03) to 500 ml RPMI 1640 medium without Phenol Red pH indicator (Irvine Scientific catalog No. 9160).
# (§2) The viability of Jurkat T cells and PBMCs was determined using the Trypan Blue method for counting and calculating the number of live cells. […] Viable cells (unstained cells) and dead cells (blue stained cells) were counted in two diagonally opposite large corner squares of the hemacytometer and the total number of viable cells in the suspension and percentage of viable cells in the population were calculated. The total number of viable cells in the suspension was calculated by multiplying the mean number of cells counted per square by the dilution factor multiplied by 10^4. The percentage of viable cells in the population was calculated by dividing the total number of viable cells per ml by the total number of cells per ml multiplied by 100. […]
# [3] = tested on: OKT3/rhIL-2-activated PBMCs; experiment: Viability (Trypan Blue) of OKT3/rhIL-2-activated PBMCs; format: cell-based, human; conditions: MPA 1×10^−7M to 1×10^−4M, 72, 96, 144 hours
# Method: (§3) Five hundred million freshly isolated, healthy donor peripheral blood mononuclear cells (PBMCs) were diluted to a volume of 500 ml with T cell culture media. PBMCs were activated with 15 λ anti-CD3 monoclonal antibody Orthoclone OKT3 (Ortho Biotech Inc.). Ten 50 ml aliquots of PBMC/OKT3 were placed in separate flasks. To each PBMC/OKT3 flask, 50 μL of stock 50 U/μl recombinant human IL-2 (Chiron catalog No. 53905-991-01) was added to stimulate proliferation. OKT3/rhIL-2-activated PBMCs were passaged under the same conditions as described for the Jurkat T cells. The amount of Jurkat T cell and PBMC proliferation was determined by measuring DNA incorporation of ^3H-Tdr 8, 10, 12, and 15 days thereafter.
# as §2, with “10^4.” for “10^4. The percentage of viable cells in the population was calculated by dividing the total number of viable cells per ml by the total number of cells per ml multiplied by 100.”
# [4] = molecular target: Bacillus subtilis IMPDH (Bacillus subtilis, UniProt P21879); conditions: Farazi et al. 1997; cited from earlier work
# [5] = molecular target: T2, IMPDH type II (Homo sapiens, UniProt P12268); conditions: cited from earlier work
# [6] = molecular target: Escherichia coli IMPDH (Escherichia coli, UniProt P0ADG7); conditions: Farazi et al. 1997; cited from earlier work
# [7] = tested on: Jurkat T cells transfected with plasmid IMPDH(T333I/S351Y)/pMG; experiment: Viability (Trypan Blue) of Jurkat T cells transfected with IMPDH(T333I/S351Y)/pMG; format: cell-based, human; conditions: hygromycin-resistant transfectants
# [8] = molecular target: Tritrichomonas foetus IMPDH (Tritrichomonas foetus, UniProt P50097); conditions: Farazi et al. 1997; cited from earlier work
# [9] = tested on: Jurkat T cells; experiment: Proliferation (3H-Tdr incorporation) of untransfected or mock-transfected Jurkat T cells; format: cell-based, human
# Method: as §1
# To assess proliferation by ^3H-Tdr incorporation, a volume of cell suspension containing 5×10^6 cells was diluted to 10 ml and incubated at 37° C. and 5% CO2. On days 8, 10, 12, and 15, volumes of cell suspension yielding 0.6×10^6 cells were placed in 15 ml conical tubes and centrifuged at 1100 rpm for 8 minutes at room temperature. Supernatant was removed and cells were resuspended in […] T cell media. Aliquots of 0.1 ml each were dispensed into wells of a 96 well round bottom plate. Six wells were used for each clone. ^3H-Tdr (ICN catalog No. 24041) was diluted 1:20 with T cell media. Each well was pulsed by adding 50 μl/well (lpCi ^3H-Tdr/well) dilute ^3H-Tdr and incubating for 4 hours. Wells were harvested onto filter paper using a PhD Cell Harvester and CPM were counted in a liquid scintillation counter by standard scintillation procedures.
# (§4) The amount of cell proliferation and viability were measured by the methods described in Example 1 at 72, 96, and 144 hours thereafter. OKT3/rhlL-2-activated PBMCs from healthy donors were passaged under the above conditions, and the amount of cell proliferation measured at the same time intervals.
# Jurkat T cells (ATCC Number: TIB-152) were grown in T cell culture media in log phase and then subjected to electroporation by the method described in Example 1 in the presence of plasmid DNA vector IMPDH(T333I/S351Y)/pMG as described above. As a control (“mock”), Jurkat T cells were mock-transfected by electroporation with plasmid-free buffer.
# As a control, mock-transfected Jurkat T cells were passaged under the same conditions.
# As a control, mock-transfected Jurkat T cells were cultured under the same conditions.
# [10] = tested on: Jurkat T cells transfected with plasmid IMPDH(T333I/S351Y)/pMG; experiment: Proliferation (3H-Tdr incorporation) of Jurkat T cells transfected with IMPDH(T333I/S351Y)/pMG; format: cell-based, human
# [11] = tested on: OKT3/rhIL-2-activated PBMCs; experiment: Proliferation (3H-Tdr incorporation) of OKT3/rhIL-2-activated PBMCs; format: cell-based, human; conditions: MPA 1×10^−7M to 1×10^−4M, 72, 96, 144 hours
# Method: as §3
# To assess proliferation by ^3H-Tdr incorporation, a volume of cell suspension containing 5×10^6 cells was diluted to 10 ml and incubated at 37° C. and 5% CO2. […] Wells were harvested onto filter paper using a PhD Cell Harvester and CPM were counted in a liquid scintillation counter by standard scintillation procedures.
# as §4
# [12] = molecular target: T1, DHODH; conditions: cited from earlier work
# Target sequence in this assay (Q02127 whole entry, species assumed): as the sequence (Q02127 whole entry) above
# [13] = molecular target: type II IMPDH (Homo sapiens, UniProt P12268); conditions: cited from earlier work; for Ki: product inhibition
# [14] = molecular target: type I IMPDH (Homo sapiens, UniProt P20839); conditions: cited from earlier work; for Ki: product inhibition
# [15] = daily dosage of 2-3 g MMF, adult transplant recipients; cited from earlier work
# [16] = molecular target: IMPDH; conditions: competition for NAD+ cofactor-binding site; Yamada et al. 1989; read-out: Ki against NAD; cited from earlier work
# [17] = molecular target: T2, IMPDH type II; conditions: uncompetitive inhibitor; read-out: Ki against type II; cited from earlier work
# [18] = tested on: B cell and T cell proliferation; conditions: cited from earlier work
# [19] = molecular target: IMPDH type I (Homo sapiens, UniProt P20839); conditions: uncompetitive inhibitor; read-out: Ki against type I; cited from earlier work
# [20] = Jurkat, MPA 1×10^−7M to 1×10^−4M, 72, 96, 144 hours
# [21] = human DHODH, read-out: Ki, uncompetitive with respect to dihydroorotate
# Sequence of type I IMPDH (P20839 whole entry): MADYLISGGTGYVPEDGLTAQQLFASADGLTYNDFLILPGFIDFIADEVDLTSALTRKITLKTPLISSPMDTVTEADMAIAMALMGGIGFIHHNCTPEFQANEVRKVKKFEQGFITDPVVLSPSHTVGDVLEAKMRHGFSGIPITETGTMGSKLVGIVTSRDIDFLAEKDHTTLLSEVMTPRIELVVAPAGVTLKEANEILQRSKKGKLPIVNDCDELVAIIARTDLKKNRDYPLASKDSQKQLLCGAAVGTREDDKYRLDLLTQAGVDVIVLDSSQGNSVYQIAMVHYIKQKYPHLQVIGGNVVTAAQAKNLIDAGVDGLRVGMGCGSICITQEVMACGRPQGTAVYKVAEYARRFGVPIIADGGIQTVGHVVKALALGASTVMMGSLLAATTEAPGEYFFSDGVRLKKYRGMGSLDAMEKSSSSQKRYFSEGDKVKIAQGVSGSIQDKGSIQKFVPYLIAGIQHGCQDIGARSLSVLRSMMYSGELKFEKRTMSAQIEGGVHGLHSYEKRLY
# Sequence of Escherichia coli IMPDH (P0ADG7 whole entry): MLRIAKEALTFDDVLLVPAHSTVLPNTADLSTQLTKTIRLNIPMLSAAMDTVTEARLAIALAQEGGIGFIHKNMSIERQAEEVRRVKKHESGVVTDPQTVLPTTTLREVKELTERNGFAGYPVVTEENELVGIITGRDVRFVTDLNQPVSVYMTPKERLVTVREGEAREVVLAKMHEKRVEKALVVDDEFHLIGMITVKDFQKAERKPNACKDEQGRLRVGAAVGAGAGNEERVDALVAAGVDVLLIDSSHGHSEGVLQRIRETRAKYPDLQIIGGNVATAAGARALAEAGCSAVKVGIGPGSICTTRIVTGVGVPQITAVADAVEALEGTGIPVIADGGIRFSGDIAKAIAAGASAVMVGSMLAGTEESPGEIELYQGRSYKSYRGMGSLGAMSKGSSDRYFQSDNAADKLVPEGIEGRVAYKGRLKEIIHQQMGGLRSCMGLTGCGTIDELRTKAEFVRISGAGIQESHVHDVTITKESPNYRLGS
# Sequence of Bacillus subtilis IMPDH (P21879 whole entry): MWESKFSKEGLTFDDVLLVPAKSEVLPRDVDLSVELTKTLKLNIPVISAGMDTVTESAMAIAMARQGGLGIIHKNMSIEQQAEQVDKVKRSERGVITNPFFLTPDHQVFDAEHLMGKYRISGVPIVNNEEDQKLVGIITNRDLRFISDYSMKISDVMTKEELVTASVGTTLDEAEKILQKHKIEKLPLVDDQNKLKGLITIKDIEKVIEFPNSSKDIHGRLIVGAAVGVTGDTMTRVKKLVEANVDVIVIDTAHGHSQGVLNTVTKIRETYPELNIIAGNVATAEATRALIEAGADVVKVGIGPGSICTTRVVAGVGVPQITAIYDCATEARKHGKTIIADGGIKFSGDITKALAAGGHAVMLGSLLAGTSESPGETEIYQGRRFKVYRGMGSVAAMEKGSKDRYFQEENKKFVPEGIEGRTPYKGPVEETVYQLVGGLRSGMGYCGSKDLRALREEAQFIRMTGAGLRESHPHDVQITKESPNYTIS
# Sequence of IMPDH type I (P20839 whole entry): as the sequence (P20839 whole entry) above
# Sequence of Tritrichomonas foetus IMPDH (P50097 whole entry): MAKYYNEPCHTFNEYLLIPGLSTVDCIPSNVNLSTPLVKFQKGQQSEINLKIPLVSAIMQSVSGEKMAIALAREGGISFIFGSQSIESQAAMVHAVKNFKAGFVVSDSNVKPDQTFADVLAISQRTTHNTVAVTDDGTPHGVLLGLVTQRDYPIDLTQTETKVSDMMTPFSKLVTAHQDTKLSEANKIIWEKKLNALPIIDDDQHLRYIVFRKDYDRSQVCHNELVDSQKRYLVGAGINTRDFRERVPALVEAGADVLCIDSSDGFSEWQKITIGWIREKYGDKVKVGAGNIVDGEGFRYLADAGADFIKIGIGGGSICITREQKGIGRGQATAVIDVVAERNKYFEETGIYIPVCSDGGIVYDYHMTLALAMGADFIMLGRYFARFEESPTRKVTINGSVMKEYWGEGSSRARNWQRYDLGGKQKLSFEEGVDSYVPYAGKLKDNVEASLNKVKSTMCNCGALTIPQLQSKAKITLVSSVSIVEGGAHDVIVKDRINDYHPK
compound,measurement,setting,value
O=C(O)c1cc(=O)[nH]c(=O)[nH]1 [Orotate],Ki,"[1]; competitive with respect to dihydroorotate, read-out: Kis (slope inhibition constant)",22 ± 3 µM
same,Ki,"[1]; uncompetitive with respect to quinone, read-out: Kij (intercept inhibition constant)",60 ± 10 µM
"COc1c(C)c2c(c(O)c1C/C=C(\C)CCC(=O)O)C(=O)OC2 [MPA, Mycophenolic acid]",viability vs. absence of MPA,[2]; [20],significantly reduced
same,viable cells in medium containing mycophenolic acid,"[2]; mock-transfected Jurkat, by 36 days",no viable cells were detected
same,viability vs. absence of MPA,[3],"significantly reduced by MPA at all concentrations, except the lowest concentration"
same,Ki,[4],500 nM
same,higher binding affinity for human IMPDH type II over human IMPDH type I,[5],approximately 5 fold
same,Ki,[6],20 µM
same,viability at day 21 post-transfer compared to day 0,[7]; higher concentrations of mycophenolic acid,somewhat less viable
same,viability at day 21 post-transfer,[7]; lower concentrations of mycophenolic acid,more viable at day 21 post-transfer than those cultured in medium containing higher concentrations of mycophenolic acid
same,Ki,[8],14 µM
same,proliferation vs. absence of MPA,[9]; [20],significantly reduced
same,proliferation in presence of mycophenolic acid,"[9]; control Jurkat, MPA 1×10^−6M to 2×10^−5M",essentially completely inhibited
same,proliferation in medium containing mycophenolic acid,"[9]; mock-transfected Jurkat, MPA 2×10^−7M to 2×10^−5M",did not proliferate
same,"3H-Tdr incorporation, % of media control","[9]; mock-transfected Jurkat, mycophenolic acid 2×10^−7 M and greater",less than 3%
same,maximum 3H-Tdr incorporation maintained,"[10]; five of the ten MPA-resistant clones, MPA 1×10^−6M or less",greater than 50%
same,"proliferation, % of the maximum proliferation in the absence of MPA","[10]; hygromycin-resistant transfectants, 2×10^−6M to 2×10^−7M MPA",20-92%
same,transfectant cells demonstrating proliferation,"[10]; limiting dilution in 3×10^−6 M mycophenolic acid, 21 days after transfection, 10^4 cells per well",Approximately 10%
same,proliferation vs. absence of MPA,[11],"significantly reduced by MPA at all concentrations, except the lowest concentration"
CC(=O)N1CCc2c([nH]c3ccc(Br)cc23)C1c1ccccc1 (stereo not shown) [NSC 665564],IC50 compared with Brequinar,[12],comparable IC50 to Brequinar
same,Ki compared with Brequinar,[12],lower Ki
xanthine monophosphate [XMP],Ki,[13],~94 µM
same,Ki,[14],~80 µM
O=C1CC(C(=O)O)NC(=O)N1 (stereo not shown) [dihydroorotate],Km,[1]; human DHODH,~9.4 µM
"COc1c(C)c2c(c(O)c1C/C=C(\C)CCC(=O)OCCN1CCOCC1)C(=O)OC2 [MMF, Mycophenolate mofetil]",therapeutically relevant blood trough levels,[15],1 to 5 µg/mL
"NC(=O)c1csc(C2O[C@@H](COP(=O)(O)OP(=O)(O)OC[C@H]3OC(n4cnc5c(N)ncnc54)[C@H](O)[C@@H]3O)[C@H](O)[C@@H]2O)n1 (stereo partly shown) [TAD, thiazole-4-carboxamide adenine dinucleotide]",Ki,[16],75 nM
COC1=C(OC)C(=O)C(C/C=C(\C)CC/C=C(\C)CC/C=C(\C)CC/C=C(\C)CC/C=C(\C)CC/C=C(\C)CC/C=C(\C)CC/C=C(\C)CC/C=C(\C)CCC=C(C)C)=C(C)C1=O [ubiquinone],Km,[1]; human DHODH,~110 µM
O=C1C(O)=C([C@H]2CC[C@H](c3ccc(Cl)cc3)CC2)C(=O)c2ccccc21 [Atovaquone],Ki,[1]; [21],11.5 µM
NC(=O)C1=CN([C@@H]2O[C@H](COP(=O)(O)OP(=O)(O)OC[C@H]3O[C@@H](n4cnc5c(N)ncnc54)[C@H](O)[C@@H]3O)[C@@H](O)[C@H]2O)C=CC1 [NADH],Ki,[13],~90 µM
same,Ki,[14],~102 µM
NC(=O)c1ccc[n+]([C@@H]2O[C@H](COP(=O)([O-])OP(=O)(O)OC[C@H]3O[C@@H](n4cnc5c(N)ncnc54)[C@H](O)[C@@H]3O)[C@@H](O)[C@H]2O)c1 [NAD],Km,[13]; substrate/cofactor,~32 µM
same,Km,[14]; substrate/cofactor,~46 µM
"O=C1C(O)=C(CC=C(Cl)Cl)C(=O)c2ccccc21 [DCL, dichloroallyl lawsone]",Ki,"[1]; human DHODH, read-out: Ki, competitive with respect to ubiquinone",0.0098 µM
same,Ki,[1]; [21],0.038 µM
COc1cc(-c2ccc(Nc3ccccc3C(=O)O)c(OC)c2)ccc1Nc1ccccc1C(=O)O [Redoxal],Ki,"[1]; non-competitive for dihydroorotate and ubiquinone, read-out: apparent Ki",0.33 µM
COc1cc(NC(=O)Nc2cccc(CNC(=O)O[C@H]3CCOC3)c2)ccc1-c1cnco1 [VX-497],Ki,[17],10 nM
same,IC50,[18],~100 nM
same,Ki,[19],7 nM
CCCCCCCCCCC1=C(C)C(=O)C(OC)=C(OC)C1=O [decylubiqunone],Km,[1]; human DHODH,~13.7 µM
"Cc1nc2c(n1-c1ccc(Br)cc1)C(=O)c1ccccc1C2=O [BNID, 1-(p-bromophenyl)-2-methyl 1H-napth(2,3-d)-imidazole-4,9-dione]",Ki,[12],530 nM
